Data published in patent publication US20250122222A1, “HETEROCYCLIC COMPOUNDS AND METHODS OF USE” (AMGEN INC., priority 2021, published 2025).
Like-named read-outs stand apart in the source and are kept apart here.

Tests used:
[1] = target: His-tagged KRAS G12D protein (Homo sapiens, UniProt P01116, G12D); test: KRAS G12D TR-FRET assay (binding); conditions: biotinylated KRPep-2d substrate, GDP in assay buffer
[2] = system: Phosphorylation of ERK1/2 in AsPC-1 cells; test: Phospho-ERK1/2 MSD assay; assay type: cell-based
Procedure: Sixteen hours prior to compound treatment, AsPC-1 cells were seeded in 96-well cell culture plates at a density of 25,000 cells/well and incubated at 37° C., 5% CO2. A compound dose-response titration was diluted in growth media, added to appropriate wells of a cell culture plate, and then incubated at 37° C., 5% CO2 for 2 hours.

[3] = Homo sapiens, ASPC1, read-out: 2 h p-ERK (AsPC-1 cells), IC50 (μM), 2 hours compound treatment

Sequence of His-tagged KRAS G12D protein (P01116 1-188 isoform P01116-2 G12D): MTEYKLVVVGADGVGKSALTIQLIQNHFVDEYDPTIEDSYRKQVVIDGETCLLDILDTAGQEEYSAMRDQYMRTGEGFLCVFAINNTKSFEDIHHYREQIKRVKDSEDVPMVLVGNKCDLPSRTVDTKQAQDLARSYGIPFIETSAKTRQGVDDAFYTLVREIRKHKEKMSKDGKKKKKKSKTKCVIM

| IC50 [1] [nM] | IC50 [2, 3] [µM] | SMILES | IC50 ([2]; read-out: 2 h p-ERK (AsPC-1 cells), IC50, 2 hours compound treatment) [µM] |
| --- | --- | --- | --- |
| 4 | 0.436 | CCc1c(F)ccc2cc(O)cc(-c3ncc4c(N5CCOCC(O)(C6CC6)C5)nc(OC[C@@]56CCCN5C[C@H](F)C6)nc4c3F)c12 (stereo partly drawn) [Example 74, 6-Cyclopropyl-4-(7-(8-ethyl-7-fluoro-3-hydroxynaphthalen-1-yl)-8-fluoro-2-(((2R,7aS)-2-fluorotetrahydro-1H-pyrrolizin-7a(5H)-yl)methoxy)pyrido[4,3-d]pyrimidin-4-yl)-1,4-oxazepan-6-ol] | – |
| 6 | 3.33 | CCc1c(F)ccc2cc(O)cc(-c3ncc4c(N5CCOC(C(N)=O)C5)nc(OC[C@@]56CCCN5C[C@H](F)C6)nc4c3F)c12 (stereo partly drawn) [Example 76, 4-(7-(8-Ethyl-7-fluoro-3-hydroxynaphthalen-1-yl)-8-fluoro-2-(((2R,7aS)-2-fluorotetrahydro-1H-pyrrolizin-7a(5H)-yl)methoxy)pyrido[4,3-d]pyrimidin-4-yl)morpholine-2-carboxamide] | – |
| 1 | 0.013 | CCc1cccc2cc(O)cc(-c3ncc4c(N5CCOC[C@@](C)(O)C5)nc(OC[C@@]56CCCN5C[C@H](F)C6)nc4c3F)c12 [Example 78, (S)-4-(7-(8-Ethyl-3-hydroxynaphthalen-1-yl)-8-fluoro-2-(((2R,7aS)-2-fluorotetrahydro-1H-pyrrolizin-7a(5H)-yl)methoxy)pyrido [4,3-d]pyrimidin-4-yl)-6-methyl-1,4-oxazepan-6-ol] | – |

More lines, now with the values behind:

| SMILES | IC50 [1] [nM] | IC50 [2, 3] [µM] | IC50 ([2]; read-out: 2 h p-ERK (AsPC-1 cells), IC50, 2 hours compound treatment) [µM] |
| --- | --- | --- | --- |
| C#CC1(O)COCCN(c2nc(OC[C@@]34CCCN3C[C@H](F)C4)nc3c(F)c(-c4cc(O)cc5ccc(F)c(CC)c45)ncc23)C1 (stereo partly drawn) [Example 70, 4-(7-(8-ethyl-7-fluoro-3-hydroxynaphthalen-1-yl)-8-fluoro-2-(((2R,7aS)-2-fluorotetrahydro-1H-pyrrolizin-7a(5H)-yl)methoxy)pyrido[4,3-d]pyrimidin-4-yl)-6-ethynyl-1,4-oxazepan-6-ol] | 1 | 0.643 | – |
| CCc1c(F)ccc2cc(O)cc(-c3ncc4c(N5CCOCC(O)(CC)C5)nc(OC[C@@]56CCCN5C[C@H](F)C6)nc4c3F)c12 (stereo partly drawn) [Example 73, 6-Ethyl-4-(7-(8-ethyl-7-fluoro-3-hydroxynaphthalen-1-yl)-8-fluoro-2-(((2R,7aS)-2-fluorotetrahydro-1H-pyrrolizin-7a(5H)-yl)methoxy)pyrido[4,3-d]pyrimidin-4-yl)-1,4-oxazepan-6-ol] | 3 | 0.063 | – |
| CCc1c(F)ccc2cc(O)cc(-c3ncc4c(N5CCOC[C@](O)(CC)C5)nc(OC[C@@]56CCCN5C[C@H](F)C6)nc4c3F)c12 [Example 79, (S)-6-Ethyl-4-(7-(8-ethyl-7-fluoro-3-hydroxynaphthalen-1-yl)-8-fluoro-2-(((2R,7aS)-2-fluorotetrahydro-1H-pyrrolizin-7a(5H)-yl)methoxy)pyrido [4,3-d]pyrimidin-4-yl)-1,4-oxazepan-6-o1] | 1 | – | 0.024 |
